{"source": "patent US7115586B2", "about": "“Non-inclusion cyclodextrin complexes” (Decode Genetics EHF., priority 2001, dated 2006)", "key": {"[1]": {"conditions": "octanol/water partition coefficient, unionized form; cited from earlier work"}, "physchem [2]": {"assay": "physchem", "conditions": "22.5 °C, pH 8.36, aqueous with cosolvent or surfactant or cyclodextrin, thermodynamic from solid"}, "[3]": {"assay": "Job's plots (continuous variation, NMR and UV)", "assay_type": "physicochemical", "conditions": "sodium salts, buffered solutions (FIG. 3)", "method": "The total molar concentration (i.e., the combined concentration of drug and HPβCD in moles per liter) was kept constant, but the mole fraction of HPβCD (i.e., [HPβCD]/([drug]+[HPβCD])) were varied from 0.1 to 0.9. The buffer salts were dissolved in 30% (v/v) D2O in water and appropriate amounts of drug and HPβCD were dissolved in the buffer solution. […] […]. The NMR spectra were recorded at 297 K on a Bruker AZ250P 250 MHZ spectrometer (USA). The UV-detector used was a Perkin-Elmer Lambda 3A Spectrophotometer (USA)."}, "[4]": {"assay": "Phase-solubility in aqueous HPβCD solutions"}, "[5]": {"assay": "Experiment A: solubility of alprazolam and diflunisal sodium salt in 10% HPβCD", "conditions": "for solubility at 7 days: 22.5 °C, pH 8.36, aqueous with cosolvent or surfactant or cyclodextrin, thermodynamic from solid"}, "physchem [6]": {"assay": "physchem", "conditions": "22.5 °C, pH 6, aqueous buffer, thermodynamic from solid"}, "[7]": {"conditions": "pure water at approximately 25° C.; cited from earlier work"}, "[8]": {"assay": "Phase-solubility of cholesterol in aqueous cyclodextrin solutions", "assay_type": "physicochemical", "conditions": "aqueous solutions of various β-cyclodextrin derivatives (RMβCD, HPβCD, SBEβCD, TMAβCD, CMβCD), ambient temperature (FIG. 7)", "description": "This left a very thin layer of cholesterol on the inner surface of the vials."}, "[9]": {"assay": "Viscosity (Brookfield digital viscometer)", "assay_type": "physicochemical", "conditions": "20% (w/v) HPβCD solution"}}, "note": "“And” between values parts separate entries of the source, which are not always exact repeats. Equal entries are not always repeated. Structures can show the parent of a compound that is named as a salt. Where two headings read alike, the source gives them in different places.", "data": [{"compound": "O=C(O)c1cc(-c2ccc(F)cc2F)ccc1O", "note": "[diflunisal]", "values": [{"measurement": "log P", "setting": "[1]", "value": 4.4}, {"measurement": "slope of phase-solubility diagram", "setting": "pH 6", "value": 1.1}, {"measurement": "type of phase-solubility diagram", "setting": "pH 6", "value": "AL-type"}, {"measurement": "solubility at 7 days", "setting": "physchem [2]", "value": "~47", "unit": "mg/mL"}, {"measurement": "mole fraction of HPβCD in the complex (Job's plots)", "setting": "[3]", "value": 0.5}]}, {"compound": "Cc1nnc2n1-c1ccc(Cl)cc1C(c1ccccc1)=NC2", "note": "[Alprazolam]", "values": [{"measurement": "solubility at 7 days", "setting": "[4]; 22.5 °C, pH 6, aqueous buffer, thermodynamic from solid", "value": 200, "unit": "µM"}, {"measurement": "type of phase-solubility diagram", "setting": "[4]; HPβCD containing pH 6.0 aqueous phosphate buffer solution, no second drug (FIG. 4)", "value": "AL-type"}, {"measurement": "type of phase-solubility diagram", "setting": "[4]; aqueous HPβCD solutions saturated with the sodium salt of diflunisal (FIGS. 5, 6)", "value": "AL-type"}, {"measurement": "type of phase-solubility diagram", "setting": "[4]; in the presence of ibuprofen (FIG. 4A)", "value": "AL-type"}, {"measurement": "increase in solubility", "setting": "[5]; 10% HPβCD saturated with diflunisal vs 10% HPβCD alone", "value": 108, "unit": "%"}, {"measurement": "solubility at 7 days", "setting": "[5]; 10% (w/v) HPβCD solution previously saturated with diflunisal", "value": "1230 µg/mL and 3980 µM"}, {"measurement": "solubility at 7 days", "setting": "[5]; 10% aqueous HPβCD solution, unbuffered, room temperature", "value": "590 µg/mL and 1910 µM"}]}, {"compound": "CC(C)Cc1ccc(C(C)C(=O)[O-])cc1.[Na+]", "note": "(stereo not shown) [ibuprofen sodium salt]", "values": [{"measurement": "slope of phase-solubility diagram", "setting": "pH 6.12", "value": 1.12}, {"measurement": "slope of phase-solubility diagram", "setting": "pH 6.28", "value": 1.17}, {"measurement": "slope of phase-solubility diagram", "setting": "pH 6.72", "value": 1.12}]}, {"compound": "CC/C(=C(/CC)c1ccc(O)cc1)c1ccc(O)cc1", "note": "[Diethylstilbestrol]", "values": [{"measurement": "solubility at 7 days", "setting": "physchem [6]", "value": 10, "unit": "µM"}, {"measurement": "Complexation efficiency (slope/(1 − slope))", "setting": "pH 6", "value": 2}, {"measurement": "Slope of the phase-solubility diagram", "setting": "pH 6", "value": 0.71}, {"measurement": "shape of phase-solubility diagram", "setting": "pH 6", "value": "non-linear"}, {"measurement": "type of phase-solubility diagram", "setting": "pH 6", "value": "AL-type"}]}, {"compound": "Oc1cc(Cl)ccc1Oc1ccc(Cl)cc1Cl", "note": "[triclosan]", "values": [{"measurement": "log P", "setting": "[1]", "value": 4.8}]}, {"compound": "carotene", "values": [{"measurement": "log P", "setting": "[1]", "value": "> 10"}]}, {"compound": "O=C(O)c1cc(-c2ccc(F)cc2F)ccc1O", "note": "[sodium salt of diflunisal, diflunisal sodium salt]", "values": [{"measurement": "slope of phase-solubility diagram", "setting": "pH 8.36", "value": 1.1}, {"measurement": "type of phase-solubility diagram", "setting": "pH 8.36", "value": "AL-type"}]}, {"compound": "CC(C)CCC[C@@H](C)[C@H]1CC[C@H]2C3=CC=C4C[C@@H](O)CC[C@]4(C)[C@H]3CC[C@]12C", "note": "[dehydrocholesterol]", "values": [{"measurement": "log P", "setting": "[1]", "value": 7.8}]}, {"compound": "β-cyclodextrin sulfobutyl ether sodium salt", "values": [{"measurement": "Solubility in water", "setting": "[7]", "value": ">500", "unit": "mg/mL"}]}, {"compound": "CC(C)CCC[C@@H](C)[C@H]1CC[C@H]2[C@@H]3CC=C4C[C@@H](O)CC[C@]4(C)[C@H]3CC[C@]12C", "note": "[cholesterol]", "values": [{"measurement": "log P", "setting": "[1]", "value": 8.5}, {"measurement": "type of phase-solubility diagram", "setting": "[8]", "value": "AP-type"}]}, {"compound": "2-Hydroxypropyl-β-cyclodextrin", "values": [{"measurement": "viscosity", "setting": "[9]", "value": 2.10, "unit": "cPoise"}]}, {"compound": "CC(C)Cc1ccc(C(C)C(=O)O)cc1", "note": "(stereo not shown) [ibuprofen]", "values": [{"measurement": "effect of increase in ionic strength on solubility", "setting": "pH 6", "value": "does not effect"}, {"measurement": "slope of phase-solubility diagram", "setting": "pH 6", "value": 1.2}, {"measurement": "type of phase-solubility diagram", "setting": "pH 6", "value": "AL-type"}, {"measurement": "mole fraction of HPβCD in the complex (Job's plots)", "setting": "[3]", "value": 0.5}]}, {"compound": "O=C(O)Cc1ccccc1Oc1ccc(Cl)cc1Cl", "note": "[fenclofenac]", "values": [{"measurement": "log P", "setting": "[1]", "value": 4.8}]}]}
